The text below walks through data of patent US12018021B2 (UCB Biopharma SRL, priority 2018, dated 2024).

Bounds are passed on as bounds.

The assay has as its target IgE-Tb / sFcεRIα-Y131A-AF488 (Homo sapiens, UniProt P01854, N146Q/N252Q). Briefly: IgE-Tb / sFcεRIα-Y131A-AF488 FRET assay (protocol for examples 234 to 501). Type of assay: binding. The settings on record: examples 234 to 501: compound with IgE-Tb 30 minutes before sFcεRIα-Y131A-AF488, incubated 18 hours at room temperature; read-out: Y131A FRET IC50 range. The procedure, abridged: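 Read-out is the 520/490 nm emission ratio (337 nm excitation) after 18 h at room temperature, background subtracted, fitted four-parameter for IC50. Final reagents: 5 nM IgE-Tb, preincubated 30 min with compound (top typically 10 μM, 2% DMSO, 3-fold 10-point), plus 25 nM sFcεRIα-Y131A-AF488.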

IgE-Tb / sFcεRIα-Y131A-AF488, sequence (P01854 whole entry N146Q/N252Q): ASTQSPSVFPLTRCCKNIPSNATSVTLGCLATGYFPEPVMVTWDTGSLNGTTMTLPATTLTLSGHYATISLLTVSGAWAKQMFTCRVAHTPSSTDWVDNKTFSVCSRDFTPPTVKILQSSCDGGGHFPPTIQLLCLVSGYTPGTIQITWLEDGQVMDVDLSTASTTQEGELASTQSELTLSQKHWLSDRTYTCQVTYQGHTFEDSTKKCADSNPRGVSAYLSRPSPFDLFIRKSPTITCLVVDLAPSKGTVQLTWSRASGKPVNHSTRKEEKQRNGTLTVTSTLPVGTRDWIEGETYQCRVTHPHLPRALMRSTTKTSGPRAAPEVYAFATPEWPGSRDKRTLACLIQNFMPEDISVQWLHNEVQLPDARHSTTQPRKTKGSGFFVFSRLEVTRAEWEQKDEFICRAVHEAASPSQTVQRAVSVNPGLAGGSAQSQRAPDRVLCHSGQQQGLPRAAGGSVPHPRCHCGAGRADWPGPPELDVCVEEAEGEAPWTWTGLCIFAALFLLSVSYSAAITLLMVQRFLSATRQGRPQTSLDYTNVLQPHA

Consider `O=C(NCC1CC1)c1c(NC(=O)C2CC2)sc2c1C[C@@H](n1cnnc1N[C@H]1CCN(c3ccc(F)nn3)C1)CC2` [Example 245, (5S)-2-(cyclopropanecarbonylamino)-N-(cyclopropylmethyl)-5-[3-[[(3S)-1-(6-fluoropyridazin-3-yl)pyrrolidin-3-yl]amino]-1,2,4-triazol-4-yl]-4,5,6,7-tetrahydrobenzothiophene-3-carboxamide], for which the IC50 is under 1000 nM. The value for `O=C(NCC1CC1)c1c(NC(=O)C2CC2)sc2c1C[C@@H](n1cnnc1N[C@H]1CCN(c3ncccn3)C1)CC2` [Example 246] was under 1000 nM; that for `COCCOC(=O)c1ncn([C@H]2CCc3sc(NC(=O)C4CC4)c(C(=O)NCC4CC4)c3C2)c1N` [Example 247, 2-methoxyethyl 5-amino-1-[(5S)-2-(cyclopropanecarbonylamino)-3-(cyclopropylmethylcarbamoyl)-4,5,6,7-tetrahydro-1-benzothiophen-5-yl]imidazole-4-carboxylate] was under 1000 nM. With `Nc1c(C(=O)OCCN2CCOCC2)ncn1[C@H]1CCc2sc(NC(=O)C3CC3)c(C(=O)NCC3CC3)c2C1` [Example 248, 2-morpholin-4-ylethyl 5-amino-1-[(5S)-2-(cyclopropanecarbonylamino)-3-(cyclopropylmethylcarbamoyl)-4,5,6,7-tetrahydro-1-benzothiophen-5-yl]imidazole-4-carboxylate], the IC50 was under 1000 nM.

As for `CSc1cccc(Nc2nncn2[C@H]2CCc3sc(NC(=O)C4CC4)c(C(=O)NCC4CC4)c3C2)c1` [Example 249, (5S)-2-(cyclopropanecarbonylamino)-N-(cyclopropylmethyl)-5-[3-(3-methylsulfanylanilino)-1,2,4-triazol-4-yl]-4,5,6,7-tetrahydrobenzothiophene-3-carboxamide], the IC50 was under 1000 nM. The value for `CS(=O)(=O)c1cccc(Nc2nncn2[C@H]2CCc3sc(NC(=O)C4CC4)c(C(=O)NCC4CC4)c3C2)c1` [Example 250, (5S)-2-(cyclopropanecarbonylamino)-N-(cyclopropylmethyl)-5-[3-(3-methylsulfonylanilino)-1,2,4-triazol-4-yl]-4,5,6,7-tetrahydrobenzothiophene-3-carboxamide] was under 1000 nM; that for `C[S+]([O-])c1cccc(Nc2nncn2[C@H]2CCc3sc(NC(=O)C4CC4)c(C(=O)NCC4CC4)c3C2)c1` (stereo partly drawn) [Example 251, (5S)-2-(cyclopropanecarbonylamino)-N-(cyclopropylmethyl)-5-[3-(3-methylsulfinylanilino)-1,2,4-triazol-4-yl]-4,5,6,7-tetrahydrobenzothiophene-3-carboxamide] was under 1000 nM; that for `C[S+]([O-])c1cccc(Nc2nncn2[C@H]2CCc3sc(NC(=O)C4CC45CC5)c(C(=O)NCC4CC4)c3C2)n1` (stereo partly drawn) [Example 255, (5S)—N-(cyclopropylmethyl)-5-[3-[(6-methylsulfinyl-2-pyridyl)amino]-1,2,4-triazo-4-yl]-2-(spiro[2.2]pentane-2-carbonylamino)-4,5,6,7-tetrahydrobenzothiophene-3-carboxamide] was under 1000 nM. The value for `COc1ccc2c(c1)Nc1c(ncn1[C@H]1CCc3sc(NC(=O)C4CC4)c(C(=O)NCC4CC4)c3C1)C(=O)N2` [Example 257, (5S)-2-(cyclopropanecarbonylamino)-N-(cyclopropylmethyl)-5-(8-methoxy-4-oxo-5,10-dihydroimidazo[4,5-c][1,5]benzodiazepin-1-yl)-4,5,6,7-tetrahydrobenzothiophene-3-carboxamide] was under 1000 nM. Take `COc1ccc2c(c1)Nc1c(ncn1[C@H]1CCc3sc(NC(=O)C4CC4)c(C(=O)NCC4CC4)c3C1)C(=O)N2C` [Example 258, (5S)-2-(cyclopropanecarbonylamino)-N-(cyclopropylmethyl)-5-(8-methoxy-5-methyl-4-oxo-10H-imidazo[4,5-c][1,5]benzodiazepin-1-yl)-4,5,6,7-tetrahydrobenzothiophene-3-carboxamide]: the IC50 is under 1000 nM.

With `Nc1c(C(=O)N2CC[C@@H](O)C2)ncn1[C@H]1CCc2sc(NC(=O)C3CC3)c(C(=O)NCC3CC3)c2C1` [Example 260, (5S)-5-[5-amino-4-[(3R)-3-hydroxypyrrolidine-1-carbonyl]imidazol-1-yl]-2-(cyclopropanecarbonylamino)-N-(cyclopropylmethyl)-4,5,6,7-tetrahydrobenzothiophene-3-carboxamide], the IC50 was under 1000 nM. For `C[C@H]1CCCN1C(=O)c1ncn([C@H]2CCc3sc(NC(=O)C4CC4)c(C(=O)NCC4CC4)c3C2)c1N` [Example 261, (5S)-5-[5-amino-4-[(2S)-2-methylpyrrolidine-1-carbonyl]imidazol-1-yl]-2-(cyclopropanecarbonylamino)-N-(cyclopropylmethyl)-4,5,6,7-tetrahydrobenzothiophene-3-carboxamide], the IC50 is under 1000 nM. In the case of `CCOC(=O)c1ncn([C@H]2CCc3sc(NC(=O)C4CC4)c(C(=O)NCC4CC4)c3C2)c1Nc1c([N+](=O)[O-])c(C)nn1C` [Example 262, Ethyl 1-[(5S)-2-(cyclopropanecarbonylamino)-3-(cyclopropylmethylcarbamoyl)-4,5,6,7-tetrahydrobenzothiophen-5-yl]-5-[(2,5-dimethyl-4-nitro-pyrazol-3-yl)amino]imidazole-4-carboxylate], the IC50 was under 1000 nM. Consider `Cc1c(Nc2nncn2[C@H]2CCc3sc(NC(=O)C4CC4)c(C(=O)NCC4CC4)c3C2)cccc1[S+](C)[O-]` (stereo partly drawn) [Example 263, (5S)-2-(cyclopropanecarbonylamino)-N-(cyclopropylmethyl)-5-[3-(2-methyl-3-methylsulfinyl-anilino)-1,2,4-triazol-4-yl]-4,5,6,7-tetrahydrobenzothiophene-3-carboxamide], for which the 50% inhibitory concentration (IC50) was under 1000 nM. The figure for `Cc1c(Nc2nncn2[C@H]2CCc3sc(NC(=O)C4CC4)c(C(=O)NCC4CC4)c3C2)cccc1S(C)(=O)=O` [Example 264, (5S)-2-(cyclopropanecarbonylamino)-N-(cyclopropylmethyl)-5-[3-(2-methyl-3-methylsulfonyl-anilino)-1,2,4-triazol-4-yl]-4,5,6,7-tetrahydrobenzothiophene-3-carboxamide] is under 1000 nM. As to `Cn1nc(-c2ncco2)cc1Nc1nncn1[C@H]1CCc2sc(NC(=O)C3CC3)c(C(=O)NCC3CC3)c2C1` [Example 265, (5S)-2-(cyclopropanecarbonylamino)-N-(cyclopropylmethyl)-5-[3-[(2-methyl-5-oxazol-2-yl-pyrazol-3-yl)amino]-1,2,4-triazol-4-yl]-4,5,6,7-tetrahydrobenzothiophene-3-carboxamide], the IC50 is under 1000 nM.

On to `CC(=O)N1CC[C@H](Nc2nncn2[C@H]2CCc3sc(NC(=O)C4CC4)c(C(=O)NCC4CC4)c3C2)C1` [Example 266, (5S)-5-[3-[[(3S)-1-acetylpyrrolidin-3-yl]amino]-1,2,4-triazol-4-yl]-2-(cyclopropanecarbonylamino)-N-(cyclopropylmethyl)-4,5,6,7-tetrahydrobenzothiophene-3-carboxamide], for which the half-maximal inhibitory concentration (IC50) is under 1000 nM.

Consider `CS(=O)(=O)N1CC[C@H](Nc2nncn2[C@H]2CCc3sc(NC(=O)C4CC4)c(C(=O)NCC4CC4)c3C2)C1` [Example 267, (5S)-2-(cyclopropanecarbonylamino)-N-(cyclopropylmethyl)-5-[3-[[(3S)-1-methylsulfonylpyrrolidin-3-yl]amino]-1,2,4-triazol-4-yl]-4,5,6,7-tetrahydrobenzothiophene-3-carboxamide], for which the IC50 is under 1000 nM. The figure for `CS(=O)(=O)N1CC[C@@H](Nc2nncn2[C@H]2CCc3sc(NC(=O)C4CC4)c(C(=O)NCC4CC4)c3C2)C1` [Example 268, (5S)-2-(cyclopropanecarbonylamino)-N-(cyclopropylmethyl)-5-[3-[[(3R)-1-methylsulfonylpyrrolidin-3-yl]amino]-1,2,4-triazol-4-yl]-4,5,6,7-tetrahydrobenzothiophene-3-carboxamide] is under 1000 nM; for `O=C1CC(Nc2nncn2[C@H]2CCc3sc(NC(=O)C4CC4)c(C(=O)NCC4CC4)c3C2)CN1` (stereo partly drawn) [Example 270, (5S)-2-(cyclopropanecarbonylamino)-N-(cyclopropylmethyl)-5-[3-[(5-oxopyrrolidin-3-yl)amino]-1,2,4-triazol-4-yl]-4,5,6,7-tetrahydrobenzothiophene-3-carboxamide] it is under 1000 nM; for `O=C1CC(Nc2nncn2[C@H]2CCc3sc(NC(=O)C4CC4)c(C(=O)NCC4CC4)c3C2)CCN1` (stereo partly drawn) [Example 272, (5S)-2-(cyclopropanecarbonylamino)-N-(cyclopropylmethyl)-5-[3-[(2-oxo-4-piperidyl)amino]-1,2,4-triazol-4-yl]-4,5,6,7-tetrahydrobenzothiophene-3-carboxamide] it is under 1000 nM.

Take `CC(=O)N1CCC(Nc2nncn2[C@H]2CCc3sc(NC(=O)C4CC4)c(C(=O)NCC4CC4)c3C2)C1C` (stereo partly drawn) [Example 273, (5S)-5-[3-[(1-acetyl-2-methyl-pyrrolidin-3-yl)amino]-1,2,4-triazol-4-yl]-2-(cyclopropanecarbonylamino)-N-(cyclopropylmethyl)-4,5,6,7-tetrahydrobenzothiophene-3-carboxamide]: the IC50 is under 1000 nM. On to `CC(=O)N1CCC(Nc2nncn2[C@H]2CCc3sc(NC(=O)C4CC4)c(C(=O)NCC4CC4)c3C2)CC1` [Example 286, (5S)-5-[3-[(1-acetyl-4-piperidyl)amino]-1,2,4-triazol-4-yl]-2-(cyclopropanecarbonylamino)-N-(cyclopropylmethyl)-4,5,6,7-tetrahydrobenzothiophene-3-carboxamide], for which the IC50 was under 1000 nM. Turning to `COC(=O)N1CC[C@H](Nc2nncn2[C@H]2CCc3sc(NC(=O)C4CC4)c(C(=O)NCC4CC4)c3C2)C1` [Example 287, Methyl (3S)-3-[[4-[(5S)-2-(cyclopropanecarbonylamino)-3-(cyclopropylmethylcarbamoyl)-4,5,6,7-tetrahydrobenzothiophen-5-yl]-1,2,4-triazol-3-yl]amino]pyrrolidine-1-carboxylate], the IC50 is under 1000 nM.

The term IC50 denotes the concentration needed to halve the response being measured.
